Starred links: 1 amine or outer side, 2 acyl side, 3 side chain; linkers in the order of their positions; H or OH if unused. Positions of bridges follow the written chain, without caps; N, C: chain ends. Non-standard residues stand in square brackets, D forms with d. Residues, ends and D or L forms follow the SMILES beside them. Groups on a side chain read outwards from the residue. *: point of attachment. Trp(1-Me) = Cn1cc(C[C@H](N)C(=O)O)c2ccccc21; C18 diacid = O=C(O)CCCCCCCCCCCCCCCCC(=O)*; C16 diacid = O=C(O)CCCCCCCCCCCCCCC(=O)*; γGlu = O=C(O)[C@H](CCC(=O)[*:2])N[*:1]; AEEA = NCCOCCOCC(=O)O; Sar = CNCC(=O)O
Each compound was assayed on classical complement pathway (assay: In vitro haemolysis assay (inhibition of classical complement pathway)). Conditions: human serum, sensitized sheep red blood cells; Table 3, given as upper bounds; read-out: IC50, inhibition of hemolysis.
Format: cell-based, human
Summary of the method: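 Compound dilutions preincubated 15 min at room temperature with diluted human serum (titrated per batch for 70-90% maximal haemolysis), then antibody-sensitized sheep RBC (10^7/well) added for 30 min at 37 °C in Tris/casein buffer, pH 7.4. Stopped with EDTA; haemolysis read at 405 nm; IC50 by 4PL fit.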

Row | Compound | IC50 [nM]
1 | CC[C@H](C)[C@@H]1NC(=O)[C@@H](NC(=O)[C@H](Cc2ccc(O)cc2)NC(=O)[C@H](CCC(=O)O)NC(=O)[C@H](CO)NC(C)=O)CSSC[C@@H](C(=O)N(C)CC(=O)N[C@@H](CCC(=O)O)C(=O)NCC(=O)N[C@@H](CCC(=O)O)C(=O)NCCOCCOCC(=O)NCCOCCOCC(=O)N[C@@H](CCCCNC(=O)CC[C@H](NC(=O)CNC(=O)CC[C@H](NC(=O)CCCCCCCCCCCCCCCCC(=O)O)C(=O)O)C(=O)O)C(N)=O)NC(=O)[C@H](CCCNC(=N)N)NC(=O)[C@H](Cc2c[nH]cn2)NC(=O)[C@H](CCC(=O)O)NC(=O)CNC(=O)[C@H](Cc2c[nH]c3ccccc23)NC(=O)[C@H](CC(=O)O)NC(=O)[C@H](CCC(N)=O)NC(=O)[C@H](Cc2cn(C)c3ccccc23)NC1=O [Compound 117] (Ac-SEYCI[Trp(1-Me)]QDWGEHRC[Sar]EGE[AEEA][AEEA]K([γGlu-Gly-γGlu-C18 diacid])-NH2; disulfide 4-14) | < 250
2 | CC[C@H](C)[C@@H]1NC(=O)[C@@H](NC(=O)[C@H](Cc2ccccc2)NC(=O)[C@H](CCC(=O)O)NC(=O)[C@H](CO)NC(C)=O)CSSC[C@@H](C(=O)N(C)CC(=O)N[C@@H](CCC(=O)O)C(=O)NCC(=O)N[C@@H](C)C(=O)N[C@@H](CCCCNC(=O)COCCOCCNC(=O)CC[C@H](NC(=O)COCCOCCNC(=O)CNC(=O)CC[C@H](NC(=O)CCCCCCCCCCCCCCCCC(=O)O)C(=O)O)C(=O)O)C(N)=O)NC(=O)[C@H](CCCNC(=N)N)NC(=O)[C@H](Cc2c[nH]cn2)NC(=O)[C@H](CCC(=O)O)NC(=O)CNC(=O)[C@H](Cc2c[nH]c3ccccc23)NC(=O)[C@H](CC(=O)O)NC(=O)[C@H](CCC(N)=O)NC(=O)[C@H](Cc2cn(C)c3ccccc23)NC1=O [Compound 119] (Ac-SEFCI[Trp(1-Me)]QDWGEHRC[Sar]EGAK([AEEA-γGlu-AEEA-Gly-γGlu-C18 diacid])-NH2; disulfide 4-14) | < 100
3 | CC[C@H](C)[C@@H]1NC(=O)[C@@H](NC(=O)[C@H](Cc2ccccc2)NC(=O)[C@H](CCC(=O)O)NC(=O)[C@H](CO)NC(C)=O)CSSC[C@@H](C(=O)N(C)CC(=O)N[C@@H](CCC(=O)O)C(=O)NCC(=O)N[C@@H](C)C(=O)N[C@@H](CCCCNC(=O)COCCOCCNC(=O)CC[C@H](NC(=O)COCCOCCNC(=O)CNC(=O)CC[C@H](NC(=O)CCCCCCCCCCCCCCCCC(=O)O)C(=O)O)C(=O)O)C(N)=O)NC(=O)[C@H](CCCNC(=N)N)NC(=O)[C@H](Cc2c[nH]cn2)NC(=O)[C@H](CCC(=O)O)NC(=O)CNC(=O)[C@H](Cc2c[nH]c3ccccc23)NC(=O)[C@H](CCC(=O)O)NC(=O)[C@H](CCC(N)=O)NC(=O)[C@H](Cc2cn(C)c3ccccc23)NC1=O [Compound 120] (Ac-SEFCI[Trp(1-Me)]QEWGEHRC[Sar]EGAK([AEEA-γGlu-AEEA-Gly-γGlu-C18 diacid])-NH2; disulfide 4-14) | < 250
4 | CC[C@H](C)[C@@H]1NC(=O)[C@@H](NC(=O)[C@H](Cc2ccc(O)cc2)NC(=O)[C@H](CCC(=O)O)NC(=O)[C@H](CO)NC(C)=O)CSSC[C@@H](C(=O)N(C)CC(=O)N[C@@H](CCC(=O)O)C(=O)N[C@@H](CCCCN)C(=O)N[C@@H](CCC(=O)N[C@@H](C)C(=O)N[C@@H](CCCCNC(=O)COCCOCCNC(=O)CC[C@H](NC(=O)COCCOCCNC(=O)CNC(=O)CC[C@H](NC(=O)CCCCCCCCCCCCCCCCC(=O)O)C(=O)O)C(=O)O)C(N)=O)C(=O)O)NC(=O)[C@H](CCCNC(=N)N)NC(=O)[C@H](Cc2c[nH]cn2)NC(=O)[C@H](CCC(=O)O)NC(=O)CN(C)C(=O)[C@H](Cc2c[nH]c3ccccc23)NC(=O)[C@H](CCC(=O)O)NC(=O)[C@H](CCC(N)=O)NC(=O)[C@H](Cc2cn(C)c3ccccc23)NC1=O [Compound 121, Ac-SEYC(1)I[1-Me-Trp]QEW[Sar]EHRC(1)[Sar]EK[γGlu]A-K([17-carboxy-heptadecanoyl][γGlu]G[Peg3][γGlu][Peg3])-NH2] (Ac-SEYCI[Trp(1-Me)]QEW[Sar]EHRC[Sar]EK[γGlu]AK([AEEA-γGlu-AEEA-Gly-γGlu-C18 diacid])-NH2; disulfide 4-14) | < 250
5 | CC[C@H](C)[C@@H]1NC(=O)[C@@H](NC(=O)[C@H](Cc2ccc(O)cc2)NC(=O)[C@H](CCC(=O)O)NC(=O)[C@H](CO)NC(C)=O)CSSC[C@@H](C(=O)N(C)CC(=O)N[C@@H](CCC(=O)O)C(=O)NCC(=O)N[C@@H](C)C(=O)N[C@@H](CCCCNC(=O)COCCOCCNC(=O)CC[C@H](NC(=O)COCCOCCNC(=O)CNC(=O)CC[C@H](NC(=O)CCCCCCCCCCCCCCCCC(=O)O)C(=O)O)C(=O)O)C(N)=O)NC(=O)[C@H](CCCNC(=N)N)NC(=O)[C@H](Cc2c[nH]cn2)NC(=O)[C@H](CCC(=O)O)NC(=O)CNC(=O)[C@H](Cc2c[nH]c3ccccc23)NC(=O)[C@H](CCC(=O)O)NC(=O)[C@H](CCC(N)=O)NC(=O)[C@H](Cc2cn(C)c3ccccc23)NC1=O [Compound 122] (Ac-SEYCI[Trp(1-Me)]QEWGEHRC[Sar]EGAK([AEEA-γGlu-AEEA-Gly-γGlu-C18 diacid])-NH2; disulfide 4-14) | < 500
6 | CC[C@H](C)[C@@H]1NC(=O)[C@@H](NC(=O)[C@H](Cc2ccccc2)NC(=O)[C@H](CCC(=O)O)NC(=O)[C@H](CO)NC(C)=O)CSSC[C@@H](C(=O)N(C)CC(=O)N[C@@H](CCC(=O)O)C(=O)NCC(=O)N[C@@H](CCC(=O)O)C(=O)NCCOCCOCC(=O)NCCOCCOCC(=O)N[C@@H](CCCCNC(=O)CC[C@H](NC(=O)CNC(=O)CC[C@H](NC(=O)CCCCCCCCCCCCCCCCC(=O)O)C(=O)O)C(=O)O)C(N)=O)NC(=O)[C@H](CCCNC(=N)N)NC(=O)[C@H](Cc2c[nH]cn2)NC(=O)[C@H](CCC(=O)O)NC(=O)CNC(=O)[C@H](Cc2c[nH]c3ccccc23)NC(=O)[C@H](CC(=O)O)NC(=O)[C@H](CCC(N)=O)NC(=O)[C@H](Cc2cn(C)c3ccccc23)NC1=O [Compound 123] (Ac-SEFCI[Trp(1-Me)]QDWGEHRC[Sar]EGE[AEEA][AEEA]K([γGlu-Gly-γGlu-C18 diacid])-NH2; disulfide 4-14) | < 100
7 | CC[C@H](C)[C@@H]1NC(=O)[C@@H](NC(=O)[C@H](Cc2ccccc2)NC(=O)[C@H](CCC(=O)O)NC(=O)[C@H](CO)NC(C)=O)CSSC[C@@H](C(=O)N(C)CC(=O)N[C@@H](CCC(=O)O)C(=O)NCC(=O)N[C@@H](CCC(=O)O)C(=O)NCCOCCOCC(=O)NCCOCCOCC(=O)N[C@@H](CCCCNC(=O)CC[C@H](NC(=O)CNC(=O)CC[C@H](NC(=O)CCCCCCCCCCCCCCCCC(=O)O)C(=O)O)C(=O)O)C(N)=O)NC(=O)[C@H](CCCNC(=N)N)NC(=O)[C@H](Cc2c[nH]cn2)NC(=O)[C@H](CCC(=O)O)NC(=O)CNC(=O)[C@H](Cc2c[nH]c3ccccc23)NC(=O)[C@H](CCC(=O)O)NC(=O)[C@H](CCC(N)=O)NC(=O)[C@H](Cc2cn(C)c3ccccc23)NC1=O [Compound 124] (Ac-SEFCI[Trp(1-Me)]QEWGEHRC[Sar]EGE[AEEA][AEEA]K([γGlu-Gly-γGlu-C18 diacid])-NH2; disulfide 4-14) | < 100
8 | CC[C@H](C)[C@@H]1NC(=O)[C@@H](NC(=O)[C@H](Cc2ccc(O)cc2)NC(=O)[C@H](CCC(=O)O)NC(=O)[C@H](CO)NC(C)=O)CSSC[C@@H](C(=O)N(C)CC(=O)N[C@@H](CCC(=O)O)C(=O)NCC(=O)N[C@@H](CCC(=O)O)C(=O)NCCOCCOCC(=O)NCCOCCOCC(=O)N[C@@H](CCCCNC(=O)CC[C@H](NC(=O)CNC(=O)CC[C@H](NC(=O)CCCCCCCCCCCCCCCCC(=O)O)C(=O)O)C(=O)O)C(N)=O)NC(=O)[C@H](CCCNC(=N)N)NC(=O)[C@H](Cc2c[nH]cn2)NC(=O)[C@H](CCC(=O)O)NC(=O)CNC(=O)[C@H](Cc2c[nH]c3ccccc23)NC(=O)[C@H](CCC(=O)O)NC(=O)[C@H](CCC(N)=O)NC(=O)[C@H](Cc2cn(C)c3ccccc23)NC1=O [Compound 125] (Ac-SEYCI[Trp(1-Me)]QEWGEHRC[Sar]EGE[AEEA][AEEA]K([γGlu-Gly-γGlu-C18 diacid])-NH2; disulfide 4-14) | < 500
9 | CC[C@H](C)[C@@H]1NC(=O)[C@@H](NC(=O)[C@H](Cc2ccccc2)NC(=O)[C@H](CCC(=O)O)NC(=O)[C@H](CO)NC(C)=O)CSSC[C@@H](C(=O)N[C@H](C(=O)N[C@@H](CCC(=O)O)C(=O)NCC(=O)N[C@@H](CCC(=O)O)C(=O)NCCOCCOCC(=O)NCCOCCOCC(=O)N[C@@H](CCCCNC(=O)CC[C@H](NC(=O)CNC(=O)CC[C@H](NC(=O)CCCCCCCCCCCCCCCCC(=O)O)C(=O)O)C(=O)O)C(N)=O)[C@@H](C)O)NC(=O)[C@H](CCCNC(=N)N)NC(=O)[C@H](Cc2c[nH]cn2)NC(=O)[C@H](CCC(=O)O)NC(=O)CNC(=O)[C@H](Cc2c[nH]c3ccccc23)NC(=O)[C@H](CC(=O)O)NC(=O)[C@H](CCC(N)=O)NC(=O)[C@H](Cc2cn(C)c3ccccc23)NC1=O [Compound 126] (Ac-SEFCI[Trp(1-Me)]QDWGEHRCTEGE[AEEA][AEEA]K([γGlu-Gly-γGlu-C18 diacid])-NH2; disulfide 4-14) | < 100
10 | CC[C@H](C)[C@@H]1NC(=O)[C@@H](NC(=O)[C@H](Cc2ccccc2)NC(=O)[C@H](CCC(=O)O)NC(=O)[C@H](CO)NC(C)=O)CSSC[C@@H](C(=O)N(C)CC(=O)N[C@@H](CCC(=O)O)C(=O)NCC(=O)N[C@@H](CCC(=O)O)C(=O)NCCOCCOCC(=O)NCCOCCOCC(=O)N[C@@H](CCCCNC(=O)CC[C@H](NC(=O)CNC(=O)CC[C@H](NC(=O)CCCCCCCCCCCCCCC(=O)O)C(=O)O)C(=O)O)C(N)=O)NC(=O)[C@H](CCCNC(=N)N)NC(=O)[C@H](Cc2c[nH]cn2)NC(=O)[C@H](CCC(=O)O)NC(=O)CNC(=O)[C@H](Cc2c[nH]c3ccccc23)NC(=O)[C@H](CC(=O)O)NC(=O)[C@H](CCC(N)=O)NC(=O)[C@H](Cc2cn(C)c3ccccc23)NC1=O [Compound 127] (Ac-SEFCI[Trp(1-Me)]QDWGEHRC[Sar]EGE[AEEA][AEEA]K([γGlu-Gly-γGlu-C16 diacid])-NH2; disulfide 4-14) | < 100
